According to paper PMC10331583, “Control of fibrosis with enhanced safety via asymmetric inhibition of prolyl‐tRNA synthetase 1” (EMBO Molecular Medicine, 2023):
Where “and” joins values, the source holds several entries; their conditions need not be identical. Equal values may be shown once. Read-outs that look alike come from different tables or passages of the source.

What was measured:
WI‐26 VA4 cells [1] = assay: CellTiter‐Glo assay (cytotoxicity)
Experimental: After 24 h, the cells were incubated with various concentrations of compounds for 48 h. The level of ATP as a measure of cell viability was determined using a CellTiter‐Glo® luminescent cell viability assay kit (Promega, G7571) following the manufacturer's instructions.
WI‐26 VA4 cells were seeded at 1.2 × 10^4 cells/well in 96‐well white plates. After 24 h, the cells were incubated with the indicated concentrations of compounds for 72 h. The viability was determined as described above.

WI‐26 VA4 cells [2] = assay: Collagen ELISA (secreted pro‐collagen I); conditions: for IC50 / activity at 0.01 µM / activity at 300 µM / activity at 0.03 µM / activity at 0.1 µM / activity at 0.3 µM / activity at 1 µM / activity at 3 µM / activity at 10 µM / activity at 30 µM / activity at 100 µM: Homo sapiens
[3] = log(inhibitor) vs. response, variable slope (four parameters), concentration in nM

Structure (SMILES): O[C@H]1CCCN[C@@H]1CCCn1cnc2c(Cl)c(Cl)ccc21 [DWN12088]
- activity at 10 µM (WI‐26 VA4 cells [1]; Homo sapiens, WI26VA4, read-out: CellTiter-Glo % of control, 10000 nM, Experiment #2, replicates): 92%
- activity at 30 µM (WI‐26 VA4 cells [1]; Homo sapiens, WI26VA4, read-out: CellTiter-Glo % of control, 30000 nM, Experiment #1, replicates): 34.8%
- activity at 30 µM (WI‐26 VA4 cells [1]; Homo sapiens, WI26VA4, read-out: CellTiter-Glo % of control, 30000 nM, Experiment #2, replicates): 38.4%
- activity at 100 µM (WI‐26 VA4 cells [1]; Homo sapiens, WI26VA4, read-out: CellTiter-Glo % of control, 100000 nM, Experiment #1, replicates): 26.4%
- activity at 100 µM (WI‐26 VA4 cells [1]; Homo sapiens, WI26VA4, read-out: CellTiter-Glo % of control, 100000 nM, Experiment #2, replicates): 20.9%
- activity at 0.01 µM (WI‐26 VA4 cells [1]; Homo sapiens, WI26VA4, read-out: CellTiter-Glo % of control, average, 10 nM, average): 104%
- activity at 0.03 µM (WI‐26 VA4 cells [1]; Homo sapiens, WI26VA4, read-out: CellTiter-Glo % of control, average, 30 nM, average): 104%
- activity at 0.1 µM (WI‐26 VA4 cells [1]; Homo sapiens, WI26VA4, read-out: CellTiter-Glo % of control, average, 100 nM, average): 109%
- activity at 0.3 µM (WI‐26 VA4 cells [1]; Homo sapiens, WI26VA4, read-out: CellTiter-Glo % of control, average, 300 nM, average): 108%
- activity at 1 µM (WI‐26 VA4 cells [1]; Homo sapiens, WI26VA4, read-out: CellTiter-Glo % of control, average, 1000 nM, average): 102%
- activity at 3 µM (WI‐26 VA4 cells [1]; Homo sapiens, WI26VA4, read-out: CellTiter-Glo % of control, average, 3000 nM, average): 84.7%
- activity at 10 µM (WI‐26 VA4 cells [1]; Homo sapiens, WI26VA4, read-out: CellTiter-Glo % of control, average, 10000 nM, average): 77.5%
- activity at 30 µM (WI‐26 VA4 cells [1]; Homo sapiens, WI26VA4, read-out: CellTiter-Glo % of control, average, 30000 nM, average): 34.6%
- activity at 100 µM (WI‐26 VA4 cells [1]; Homo sapiens, WI26VA4, read-out: CellTiter-Glo % of control, average, 100000 nM, average): 22.4%
- activity at 300 µM (WI‐26 VA4 cells [1]; Homo sapiens, WI26VA4, read-out: CellTiter-Glo % of control, average, 300000 nM, average): 1.88%
- activity at 1000 µM (WI‐26 VA4 cells [1]; Homo sapiens, WI26VA4, read-out: CellTiter-Glo % of control, average, 1000000 nM, average): 0.11%
- CellTiter-Glo LogIC50 (best-fit value) (WI‐26 VA4 cells [1]; [3]): 4.308
- Collagen, % of control (single replicates per experiment) (WI‐26 VA4 cells [2]; 10 nM, 0.01 µM): 101.76 % of control
- Collagen, % of control (single replicates per experiment) (WI‐26 VA4 cells [2]; 30 nM, 0.03 µM): 120.03 % of control and 114.52 % of control and 91.73 % of control and 89.16 % of control and 97.48 % of control and 99.13 % of control and 133.18 % of control and 134.10 % of control
- Collagen, % of control (single replicates per experiment) (WI‐26 VA4 cells [2]; 100 nM, 0.1 µM): 111.05 % of control and 113.92 % of control and 88.23 % of control and 93.03 % of control and 102.46 % of control and 102.99 % of control and 133.45 % of control and 119.32 % of control
- Collagen, % of control (single replicates per experiment) (WI‐26 VA4 cells [2]; 300 nM, 0.3 µM): 97.76 % of control and 92.78 % of control and 92.20 % of control and 87.32 % of control and 95.43 % of control and 105.10 % of control and 105.64 % of control and 109.03 % of control
- Collagen, % of control (single replicates per experiment) (WI‐26 VA4 cells [2]; 1000 nM, 1 µM): 75.49 % of control and 75.29 % of control and 77.13 % of control and 68.65 % of control and 66.58 % of control and 66.40 % of control and 103.27 % of control and 103.19 % of control
- Collagen, % of control (single replicates per experiment) (WI‐26 VA4 cells [2]; 3000 nM, 3 µM): 24.90 % of control and 21.92 % of control
- TI (CC50/IC50 for collagen level) (WI‐26 VA4 cells [2]; Fig 1C): 10.29
- CC50/collagen IC50 (WI‐26 VA4 cells [2]; Fig 5E): 10.07
- IC50 (WI‐26 VA4 cells [2]; WI26VA4, 72 h, read-out: IC50 for collagen level): 2020 nM
- IC50 (WI‐26 VA4 cells [2]; WI26VA4, read-out: Collagen IC50 (best-fit value)): 2020 nM
- activity at 0.01 µM (WI‐26 VA4 cells [2]; WI26VA4, read-out: Collagen, % of control (single replicates per experiment), 10 nM): 101%
- activity at 300 µM (WI‐26 VA4 cells [2]; WI26VA4, read-out: Collagen, % of control (single replicates per experiment), 300000 nM): 3.81%
- activity at 0.01 µM (WI‐26 VA4 cells [2]; WI26VA4, read-out: Collagen, % of control, average, 10 nM, average): 101%
- activity at 0.03 µM (WI‐26 VA4 cells [2]; WI26VA4, read-out: Collagen, % of control, average, 30 nM, average): 103%
- activity at 0.1 µM (WI‐26 VA4 cells [2]; WI26VA4, read-out: Collagen, % of control, average, 100 nM, average): 105%
- activity at 0.3 µM (WI‐26 VA4 cells [2]; WI26VA4, read-out: Collagen, % of control, average, 300 nM, average): 96.4%
- activity at 1 µM (WI‐26 VA4 cells [2]; WI26VA4, read-out: Collagen, % of control, average, 1000 nM, average): 78.8%
- activity at 3 µM (WI‐26 VA4 cells [2]; WI26VA4, read-out: Collagen, % of control, average, 3000 nM, average): 37.7%
- activity at 10 µM (WI‐26 VA4 cells [2]; WI26VA4, read-out: Collagen, % of control, average, 10000 nM, average): 15%
- activity at 30 µM (WI‐26 VA4 cells [2]; WI26VA4, read-out: Collagen, % of control, average, 30000 nM, average): 5.52%
- activity at 100 µM (WI‐26 VA4 cells [2]; WI26VA4, read-out: Collagen, % of control, average, 100000 nM, average): 4.05%
- activity at 300 µM (WI‐26 VA4 cells [2]; WI26VA4, read-out: Collagen, % of control, average, 300000 nM, average): 4.51%
- activity at 0.03 µM (WI‐26 VA4 cells [2]; WI26VA4, read-out: Efficacy, % of control, average, 30 nM): 102%
- activity at 0.1 µM (WI‐26 VA4 cells [2]; WI26VA4, read-out: Efficacy, % of control, average, 100 nM): 99.4%
- activity at 0.3 µM (WI‐26 VA4 cells [2]; WI26VA4, read-out: Efficacy, % of control, average, 300 nM): 107%
- activity at 1 µM (WI‐26 VA4 cells [2]; WI26VA4, read-out: Efficacy, % of control, average, 1000 nM): 82.3%
- activity at 3 µM (WI‐26 VA4 cells [2]; WI26VA4, read-out: Efficacy, % of control, average, 3000 nM): 35.4%
- activity at 10 µM (WI‐26 VA4 cells [2]; WI26VA4, read-out: Efficacy, % of control, average, 10000 nM): 11.9%
- activity at 30 µM (WI‐26 VA4 cells [2]; WI26VA4, read-out: Efficacy, % of control, average, 30000 nM): 3.71%
- activity at 100 µM (WI‐26 VA4 cells [2]; WI26VA4, read-out: Efficacy, % of control, average, 100000 nM): 2.52%
- activity at 0.03 µM (WI‐26 VA4 cells [2]; WI26VA4, read-out: Efficacy, % of control, single replicate, 30 nM): 113%
- activity at 0.1 µM (WI‐26 VA4 cells [2]; WI26VA4, read-out: Efficacy, % of control, single replicate, 100 nM): 108%
- activity at 0.3 µM (WI‐26 VA4 cells [2]; WI26VA4, read-out: Efficacy, % of control, single replicate, 300 nM): 114%
- activity at 3 µM (WI‐26 VA4 cells [2]; WI26VA4, read-out: Efficacy, % of control, single replicate, 3000 nM): 39%
- activity at 10 µM (WI‐26 VA4 cells [2]; WI26VA4, read-out: Efficacy, % of control, single replicate, 10000 nM): 10.1%
- activity at 30 µM (WI‐26 VA4 cells [2]; WI26VA4, read-out: Efficacy, % of control, single replicate, 30000 nM): 3.03%
- IC50 (WI‐26 VA4 cells [2]; WI26VA4, read-out: IC50 for collagen level): 2000 nM
- Collagen HillSlope (best-fit value) (WI‐26 VA4 cells [2]; log(inhibitor) vs. response, variable slope (four parameters)): -1.329
- Collagen LogIC50 (best-fit value) (WI‐26 VA4 cells [2]; [3]): 3.306
- Relative (CC50)/(collagen IC50) (WI‐26 VA4 cells [2]; relative to HF, Fig 5E): 3.01
